We go through 3 molecules from patent US20120121591A1 (priority 2009, published 2012).

The IC50 is the concentration that inhibits the measured activity by half.

Holding throughout (type): cell-based
Assay [1] has as its system IL-2 secretion from T cells in human whole blood. To be noted: read-out: WB (IL-2) IC50 (nM, Avg).
In the next assay the target is hKv1.3 (Homo sapiens, UniProt P22001). Nature of the assay: cell-based. The conditions noted are these: Kv1.3 (IWQ) IC50 (nM, Avg).
Assay [2] concerns IFN-g secretion from T cells in human whole blood. The conditions noted are these: read-out: WB (IFNg) IC50 (nM, Avg).

Sequence of hKv1.3 (P22001 whole entry): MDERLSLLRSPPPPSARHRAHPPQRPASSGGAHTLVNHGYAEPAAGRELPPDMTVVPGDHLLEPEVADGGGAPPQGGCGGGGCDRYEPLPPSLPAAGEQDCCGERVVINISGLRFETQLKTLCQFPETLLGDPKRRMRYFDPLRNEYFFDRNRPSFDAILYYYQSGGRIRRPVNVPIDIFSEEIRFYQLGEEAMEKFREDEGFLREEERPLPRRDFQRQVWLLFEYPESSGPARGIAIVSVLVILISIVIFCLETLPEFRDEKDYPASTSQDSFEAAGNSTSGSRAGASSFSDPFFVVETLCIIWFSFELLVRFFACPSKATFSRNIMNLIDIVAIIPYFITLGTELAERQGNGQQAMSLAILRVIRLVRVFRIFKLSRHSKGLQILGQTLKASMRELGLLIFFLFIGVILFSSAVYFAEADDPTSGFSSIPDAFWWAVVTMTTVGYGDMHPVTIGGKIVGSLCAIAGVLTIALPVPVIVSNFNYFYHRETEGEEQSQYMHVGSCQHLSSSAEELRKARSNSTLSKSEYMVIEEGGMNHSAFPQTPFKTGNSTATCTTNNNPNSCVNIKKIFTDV

In the case of `CCC[C@@H]1NC(=O)[C@H](CO)NC(=O)[C@H](Cc2c[nH]cn2)NC(=O)[C@H](CCCCN)NC(=O)[C@@H]2CSSC[C@@H]3NC(=O)[C@H]([C@@H](C)O)NC(=O)[C@H](CCCCN)NC(=O)[C@H](CCCNC(=N)N)NC(=O)[C@H](CSSC[C@H](NC(=O)[C@H](CCCNC(=N)N)NC(=O)[C@H](CO)NC(=O)[C@H](CCCCN)NC(=O)[C@@H]4CCCN4C(=O)[C@H]([C@@H](C)CC)NC(=O)[C@H]([C@@H](C)O)NC(=O)[C@H](CC(=O)O)NC(=O)[C@H]([C@@H](C)CC)NC(=O)[C@@H](NC(=O)[C@H](CO)NC(=O)[C@@H](N)CCCNC(=N)N)CSSC[C@@H](C(=O)N[C@@H](C)C(=O)O)NC(=O)[C@H]([C@@H](C)O)NC(=O)CNC3=O)C(=O)N[C@@H]([C@@H](C)O)C(=O)N[C@@H](C)C(=O)N[C@@H](Cc3ccccc3)C(=O)N[C@@H](CCCCN)C(=O)N2)NC(=O)[C@H](Cc2ccccc2)NC(=O)[C@H](CO)NC(=O)[C@H](CC(C)C)NC(=O)[C@H](CCCNC(=N)N)NC(=O)[C@H](Cc2ccc(O)cc2)NC(=O)[C@H](CCCCN)NC1=O` [[Lys16,Nva21]ShK-Ala], the 50% inhibitory concentration (IC50) was 0.164 nM in assay [1], 13.5 nM against hKv1.3 and 0.307 nM in assay [2].
As to `CCC[C@@H]1NC(=O)[C@H](CO)NC(=O)[C@H](Cc2c[nH]cn2)NC(=O)[C@H](CCCCN)NC(=O)[C@@H]2CSSC[C@@H]3NC(=O)[C@H]([C@@H](C)O)NC(=O)[C@H](CCCCN)NC(=O)[C@H](CCCNC(=N)N)NC(=O)[C@H](CSSC[C@H](NC(=O)[C@H](CCCNC(=N)N)NC(=O)[C@H](CO)NC(=O)[C@H](CCCCN)NC(=O)[C@@H]4CCCN4C(=O)[C@H]([C@@H](C)CC)NC(=O)[C@H]([C@@H](C)O)NC(=O)[C@H](CC(=O)O)NC(=O)[C@H]([C@@H](C)CC)NC(=O)[C@@H](NC(=O)[C@H](CO)NC(=O)[C@@H](N)CCCNC(=N)N)CSSC[C@@H](C(=O)N[C@@H](CC(=O)O)C(N)=O)NC(=O)[C@H]([C@@H](C)O)NC(=O)CNC3=O)C(=O)N[C@@H]([C@@H](C)O)C(=O)N[C@@H](C)C(=O)N[C@@H](Cc3ccccc3)C(=O)N[C@@H](CCCCN)C(=O)N2)NC(=O)[C@H](Cc2ccccc2)NC(=O)[C@H](CO)NC(=O)[C@H](CC(C)C)NC(=O)[C@H](CCCNC(=N)N)NC(=O)[C@H](Cc2ccc(O)cc2)NC(=O)[C@H](CCCCN)NC1=O` [[Lys16,Nva21]ShK-Asp-amide], the 50% inhibitory concentration (IC50) in assay [1] was 0.255 nM; against hKv1.3, 0.28 nM; in assay [2], 0.349 nM.
Taken in the same sequence, the figures for `CCC[C@@H]1NC(=O)[C@H](CO)NC(=O)[C@H](Cc2c[nH]cn2)NC(=O)[C@H](CCCCN)NC(=O)[C@@H]2CSSC[C@@H]3NC(=O)[C@H]([C@@H](C)O)NC(=O)[C@H](CCCCN)NC(=O)[C@H](CCCNC(=N)N)NC(=O)[C@H](CSSC[C@H](NC(=O)[C@H](CCCNC(=N)N)NC(=O)[C@H](CO)NC(=O)[C@H](CCCCN)NC(=O)[C@@H]4CCCN4C(=O)[C@H]([C@@H](C)CC)NC(=O)[C@H]([C@@H](C)O)NC(=O)[C@H](CC(=O)O)NC(=O)[C@H]([C@@H](C)CC)NC(=O)[C@@H](NC(=O)[C@H](CO)NC(=O)[C@@H](N)CCCNC(=N)N)CSSC[C@@H](C(=O)N[C@@H](CO)C(N)=O)NC(=O)[C@H]([C@@H](C)O)NC(=O)CNC3=O)C(=O)N[C@@H]([C@@H](C)O)C(=O)N[C@@H](C)C(=O)N[C@@H](Cc3ccccc3)C(=O)N[C@@H](CCCCN)C(=O)N2)NC(=O)[C@H](Cc2ccccc2)NC(=O)[C@H](CO)NC(=O)[C@H](CC(C)C)NC(=O)[C@H](CCCNC(=N)N)NC(=O)[C@H](Cc2ccc(O)cc2)NC(=O)[C@H](CCCCN)NC1=O` [[Lys16,Nva21]ShK-Ser-amide] were 0.467 nM, 0.09 nM and 0.662 nM.
